Reference: patent US6733782B1, “Core tablet for controlled release of gliclazide after oral administration” (Les Laboratories Servier, priority 1999, dated 2004)

Assay: solubility of the active ingredient according to pH (FIG. 1)
Assay type: physicochemical
Details: at acid pHs; increases as pH rises (FIG. 1)
From the text: The main aim of the invention was to obtain an oral form in which the rate of release of the active ingredient is controlled and reproducible. In fact, in the current form the dissolution of the active ingredient varies greatly according to pH. This characteristic, associated with gliclazide itself, poses absorption problems for the active ingredient. The solubility is very weak at acid pHs and increases as pH rises.
FIG. 1 represents the phenomenon of the solubility of the active ingredient varying according to pH.

For `Cc1ccc(S(=O)(=O)NC(=O)NN2CC3CCCC3C2)cc1` (stereo not shown) [gliclazide, Gliclazide], the “solubility of the active ingredient” value was “very weak”.
